Data from BindingDB's records for doi:10.1021/jm058033i (University of Regensburg, 2006).

Key:
[1] = Inhibition of DNA synthesis in IL3 dependent FDC-P1 cells expressing KIT V558D mutant
[2] = Inhibition of DNA synthesis in IL3 dependent FDC-P1 cells expressing wild-type KIT
[3] = Antiproliferative activity against mouse 32Dcl3 cell line expressing FLT3-ITD
[4] = Antiproliferative activity against mouse 32Dcl3 cell line expressing wild-type FLT3

SMILES: Cc1cccc2[nH]c(C(=O)c3cc4cc(O)ccc4[nH]3)cc12 [(5-Hydroxy-1H-indol-2-yl)-(4-methyl-1H-indol-2-yl)-methanone]
- IC50 [1]: 500 nM
- IC50 [2]: 500 nM

SMILES: O=C(c1cc2cc(O)ccc2[nH]1)c1cc2cc(O)ccc2[nH]1 [Bis-(5-hydroxy-1H-indol-2-yl)-methanone]
- IC50 [3]: 100 nM
- IC50 [4]: 100 nM
- IC50 [1]: 500 nM
- IC50 [2]: 500 nM
